Data set [1] deals with 60 bp pvirB FID (DNA, duplex) AGAATATTATTCTTTTATCCAATAAAGATAAATTGCATCAATCCAGCTATTAAAATAGTA/TACTATTTTAATAGCTGGATTGATGCAATTTATCTTTATTGGATAAAAGAATAATATTCT
As to the kind of experiment: fluorescent intercalator displacement (ethidium bromide). Particulars: 0.1 M NaCl; 0.1 M Tris-HCl pH 8.0, room temperature; 45 μM ethidium; 1.5 μM DNA; highest tested 100 μM.

Data set [2] has as its system 10 bp pvirB 51-60 FID (DNA, duplex) TAAAATAGTA/TACTATTTTA
Described as above. Particulars: 0.1 M NaCl; 0.1 M Tris-HCl pH 8.0, room temperature; 7.5 μM ethidium; 1.5 μM DNA; highest tested 100 μM.

The target of data set [3] is T1, MalE-VirF binding to the pvirB DNA probe (Shigella flexneri, UniProt P0A2T1).
T1 construct: pMALvirF was constructed by cloning the virF gene into the vector, pMAL-c2x; made in house; host or cells: Shigella flexneri BS103 (pBAD202-MALvirF); initial preparations in E. coli KS1000 (pMALvirF)
The experiment in a line: Fluorescence polarization (FP) assay, inhibition of MalE-VirF binding to the pvirB DNA probe. Particulars: read-out: % Inhibition at 100 μM. On the procedure:
The FP assays were conducted in duplicate in black, half-area, 96-well plates (Corning, Twerksbury, MA). First, 30 μL of 5’-Fluoroscein-pvirB DNA probe working standard was added to appropriate wells of the microplate. The pvirB DNA working standard was in TE/NaCl buffer (see above) supplemented with BSA (0.07 mg/mL) and salmon sperm DNA (0.7 mg/mL). Next, 30 μL of varying concentrations of MalE-VirF in amylose resin elution buffer (see above) was added to appropriate wells of the microplate. The final concentration of pvirB DNA was either 50 nM (for test wells) or none (for blank wells) and the final concentrations of MalE-VirF ranged from 45 μM to 0.12 μM (for test wells) or none (for control wells). For each concentration of MalE-VirF tested, a blank well was also set up that included all reagents except pvirB DNA. The microplate was then incubated for 20 minutes at 37°C and anisotropy was determined using a SpectraMax M5 plate reader (Molecular Devices, Sunnyvale, CA). Data was acquired using an excitation wavelength equal to 490 nm and an emission wavelength equal to 520 nm. To determine anisotropy the following equation was used: Anisotropy=F∥-G^*F⊥/F∥+2^*G^*F⊥^*1000 where: Fǁ = fluorescence intensity parallel to excitation source after blanking, F┴ = fluorescence intensity perpendicular to excitation source after blanking, and G = G-factor (correction for polarization bias of the detection system). After anisotropy was determined, data were plotted using GraphPad Prism (La Jolla, Ca) and fit to the following equation: […] where Y = specific binding, KD = dissociation constant, BMAX = maximum binding, X = MalE-VirF concentration, and b = y-intercept.
The FP protocol listed above was adapted to determine the IC50 of the small molecule hit compounds. Compounds (ranging from 200 μM to 3.1 μM) or DMSO for controls (1% final concentration) were added to the pvirB DNA probe working standard prior to addition to the microplates. For IC50 determination, the MalE-VirF and pvirB DNA probe concentrations were held constant at 20 μM and 50 nM, respectively. Positive controls were established to determine 100% VirF inhibition (no MalE-VirF present, 50 nM pvirB DNA probe) and negative controls were set up to determine no VirF inhibition (1% DMSO, 20 μM MalE-VirF, and 50 nM pvirB DNA probe). Once again blanks were set up to include all reagents, except pvirB DNA probe. All reactions were run in duplicate. Anisotropy was calculated as listed above and data were plotted using GraphPad Prism then fit to the following equation: Y=Bottom+(Top-Bottom)/(1+10^(X-logIC50)) where: Y = anisotropy, X = log of compound concentration (M), Top and Bottom = plateaus in anisotropy units, and LogIC50 = log of the concentration that inhibits 50% of VirF binding. In the presence of the compounds (no VirF), a small increase (~6%) in the DNA anisotropy was observed.
The FP protocol used for IC50 determination was adapted to test a library of small molecule inhibitors of VirF. All steps were identical to the above protocol except compounds were tested at only 100 μM final concentration and positive control samples included 100 μM of compound. Once again blanks were set up to include all reagents, except pvirB DNA probe, and all reactions were run in duplicate. Anisotropy was calculated as listed above, and %inhibition was calculated as follows: %inhibition=rneg-rtest/rneg^*100 where: rneg = average anisotropy for negative controls and rtest = average anisotropy in presence of compound. Note: All rneg and rtest values were normalized to positive control values.
In general terms: In fluorescence polarisation assays a small probe gives low polarisation when free and higher when bound to something large.

Data set [4] deals with T2, MalE-VirF binding to the 5'Cy5-pvirB DNA probe (Shigella flexneri, UniProt P0A2T1).
T2 construct: pMALvirF was constructed by cloning the virF gene into the vector, pMAL-c2x; made in house; host or cells: Shigella flexneri BS103 (pBAD202-MALvirF); initial preparations in E. coli KS1000 (pMALvirF)
The experiment in a line: Electrophoretic mobility shift assay (EMSA) of MalE-VirF binding to pvirB DNA probe. Particulars: compound 100 μM; MalE-VirF 1 μM; probe 0.25 μM. On the procedure: Reactions for the EMSAs were incubated in a 37°C water bath for 15 minutes. Reactions (15 μL total volume) were composed of 6 μL pvirB EMSA DNA probe (0.25 μM), 6 μL of either MalE-VirF (1.0 μM) or native gel loading buffer (Tris-HCl 0.3 M, 50% glycerol, 0.05% bromophenol blue, pH 7.0), 1 μL of salmon sperm DNA (0.7 mg/mL, Invitrogen), 0.5 μL BSA (0.07 mg/mL), and 1.5 μL of either DMSO or compound (100 μM). A 6% native polyacrylamide gel (29:1 acrylamide to bis-acrylamide ratio) was made with 0.25X TBE buffer (22 mM Tris Base, 22 mM boric acid, 0.5 mM EDTA, pH 9.5) for the EMSA. The gel was electrophoresed for 1 hour at 150 V in 0.25X TBE buffer at 4°C before samples were loaded. After the reaction solutions (12 μL) were loaded onto the gel, the gel was electrophoresed for an additional hour at 150 V and 4°C. The gel was then visualized using FluorChem M gel imager (Protein Simple, Santa Clara, CA) with a 607 nm excitation wavelength and a 710 nm emission filter.
In general terms: A gel shift assay detects complexes by their altered migration in electrophoresis.

Data set [5] concerns spread of an active S. flexneri infection. Particulars: at concentrations at or below their IC50s in the reporter assay; cited from earlier work.
Data set [6] addresses T3, MalE-VirF (Shigella flexneri, UniProt P0A2T1 1-262). The experiment in a line: fluorescence anisotropy; 20 uM MalE-VirF, 50 nM DNA (r = 39 alone, 36 with protein). Particulars: protein: recombinant; tags: N-terminal MalE (MBP) fusion, not cleaved; label: 5'-fluorescein on top strand; blunt.
For data set [7], the target named is T3, MalE-VirF. The experiment in a line: EMSA; 1 uM MalE-VirF, 0.25 uM DNA. To be noted: protein: recombinant, tags: N-terminal MalE (MBP) fusion, not cleaved, label: 5'-Cy5 on LUEGO strand (S5), blunt, three strands.
Data set [8] deals with T3, MalE-VirF. The experiment in a line: fluorescence anisotropy. Particulars: protein: recombinant; tags: N-terminal MalE (MBP) fusion, not cleaved; label: 5'-fluorescein on top strand; blunt.

T3 sequence (P0A2T1 whole entry, the tested form may be a part): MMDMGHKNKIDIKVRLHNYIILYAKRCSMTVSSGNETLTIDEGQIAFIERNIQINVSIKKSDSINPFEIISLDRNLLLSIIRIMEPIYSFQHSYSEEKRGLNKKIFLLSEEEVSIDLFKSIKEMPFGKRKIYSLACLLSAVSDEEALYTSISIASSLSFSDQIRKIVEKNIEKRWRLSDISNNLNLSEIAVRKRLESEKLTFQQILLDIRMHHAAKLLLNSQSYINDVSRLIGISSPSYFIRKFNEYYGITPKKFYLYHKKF
T1 sequence (P0A2T1 whole entry, looked up): as the sequence (P0A2T1 whole entry, the tested form may be a part) above
T2 sequence (P0A2T1 whole entry, looked up): as the sequence (P0A2T1 whole entry, the tested form may be a part) above

`CNCCOc1nc(-c2ccccc2)nc2c1oc1ccccc12`: the “%fluorescence” value is 93 ± 3% in data set [1] and 95 ± 1% in data set [2]. Broadly, the inhibition is the drop in the measured response relative to a control, in per cent. With `CCN(CC)CCCOc1nc(-c2ccccc2)nc2c1oc1ccccc12` [compound 598089], in data set [3], the inhibition at 100 µM came to 68%.

`CCc1nc(OCCN(C)C)c2oc3ccccc3c2n1` [compound 587469]: the inhibition at 100 µM in data set [3] worked out at 16 ± 0.4%.

With `Clc1ccc2nc(COc3ccccc3)[nH]c2c1` [compound 153578], the “Effect on MalE-VirF binding to the pvirB DNA probe (EMSA)” value in data set [4] is recorded as “little to no effect on DNA binding”. In addition, in data set [5], the “Inhibition of the spread of an active S. flexneri infection” value is on record as “approximately 75%”. With `O=c1[nH]c(-c2ccc(C(F)(F)F)cc2)nc2c1oc1ccccc12` [compound 765345], the inhibition at 100 µM in data set [3] came out at 1 ± 0.1%. As for `CCN(CC)CCOc1nc(-c2ccccc2)nc2c1oc1ccccc12` [compound 587109], the inhibition at 100 µM in data set [3] is 43 ± 1%.

For the molecule `CCN(CC)c1cccc(Oc2nc(-c3ccccc3)nc3c2oc2ccccc23)c1` [compound 9660235], the inhibition at 100 µM in data set [3] is 5 ± 0.2%.

Consider `c1ccc(-c2nc(N3CCOCC3)c3oc4ccccc4c3n2)cc1` [compound 9111063], for which the inhibition at 100 µM in data set [3] was -5 ± 0.1%.

In the case of `c1ccc(-c2nc(N3CCN(c4ccccc4)CC3)c3oc4ccccc4c3n2)cc1` [compound 568180], in data set [3], the inhibition at 100 µM is 2 ± 0.1%. Same read-out and setting: the same measure for `c1ccc(-c2nc(Oc3cccnc3)c3oc4ccccc4c3n2)cc1` [compound 9660232]: 17 ± 2%; for `CCN(CC)CCNc1nc(-c2ccccc2)nc2c1oc1ccccc12` [compound 048373]: 15 ± 0.4%; for `CN1CCN(c2nc(-c3ccccc3)nc3c2oc2ccccc23)CC1` [compound 078044]: 42 ± 0.4%. `CCN(CC)CCOc1nc(C)nc2c1oc1ccccc12` [compound 050908]: the inhibition at 100 µM in data set [3] amounted to 18 ± 0.4%.

B1: pScram FP probe (dsDNA)
DNA 1: TAAGTCCTAAATGGAAATTAAATTACGTAATTCACAAATATAGTATGATCATTTATATCA
DNA 2: TGATATAAATGATCATACTATATTTGTGAATTACGTAATTTAATTTCCATTTAGGACTTA
With B1, the binding result in data set [6] is “no binding”.

B2: pScram EMSA probe (dsDNA)
DNA 1: GTGCCCTGGTCTGG
DNA 2: TAAGTCCTAAATGGAAATTAAATTACGTAATTCACAAATATAGTATGATCATTTATATCA
DNA 3: TGATATAAATGATCATACTATATTTGTGAATTACGTAATTTAATTTCCATTTAGGACTTACCAGACCAGGGCAC
Consider B2, for which, in data set [7] (LUEGO (S5) and top (S3) abut with a nick on bottom S4 (74 nt)), the binding result was “no binding”.

B3: pvirB FP probe (dsDNA)
DNA 1: AGAATATTATTCTTTTATCCAATAAAGATAAATTGCATCAATCCAGCTATTAAAATAGTA
DNA 2: TACTATTTTAATAGCTGGATTGATGCAATTTATCTTTATTGGATAAAAGAATAATATTCT
One may read the Kd as the concentration at which binding is half-saturated. For B3, in data set [8], the Kd came out at 2800 ± 1000 nM.

B4: pvirB EMSA probe (dsDNA)
DNA 1: GTGCCCTGGTCTGG
DNA 2: AGAATATTATTCTTTTATCCAATAAAGATAAATTGCATCAATCCAGCTATTAAAATAGTA
DNA 3: TACTATTTTAATAGCTGGATTGATGCAATTTATCTTTATTGGATAAAAGAATAATATTCTCCAGACCAGGGCAC
In the case of B4, in data set [7] (LUEGO (S5) and top (S1) abut with a nick on bottom S2 (74 nt)), the binding result is recorded as “binds”.

Source of the values: publication PMC4564171 (PLoS ONE, 2015).
